Melting point data for six compounds are collected here from patent US8653276B2 (SANOFI, priority 2008, dated 2014).

Structures are written as SMILES. Counter-ions that a name gives are not always drawn.

What is called melting point is the temperature, or range, at which the solid turns liquid. The compound `COC(=O)C1(NC(=O)c2ccc(-n3nc(C)cc3C)c(-c3ccc(Cl)c(OCCCN(C)C)c3)n2)CCCCC1` (as salt: hydrochloride) [Compound 18, methyl 1-({[6-{4-chloro-3-[3-(dimethylamino)propoxy]phenyl}-5-(3,5-dimethyl-1H-pyrazol-1-yl)pyridin-2-yl]carbonyl}amino)cyclohexanecarboxylate] showed a melting point of 158 °C. In the case of `COC(=O)C1(NC(=O)c2cnc(-c3ccc(C)cc3C)c(-c3ccc(Cl)c(OCCCN(C)C)c3)n2)CCCCC1` (as salt: hydrochloride) [Compound 20, methyl 1-({[6-{4-chloro-3-[3-(dimethylamino)propoxy]phenyl}-5-(2,4-dimethylphenyl)pyrazin-2-yl]carbonyl}amino)cyclohexanecarboxylate] it was 118 °C; in that of `CCOc1ccc(Cl)c(-c2ncc(C(=O)N[C@@H](CC(=O)OC)C(C)(C)C)nc2-c2ccc(Cl)c(OCCCN(C)C)c2)c1` (as salt: hydrochloride) [Compound 24, methyl(3S)-3-({[6-{4-chloro-3-[3-(dimethylamino)propoxy]phenyl}-5-(2-chloro-5-ethoxyphenyl)pyrazin-2-yl]carbonyl}amino)-4,4-dimethylpentanoate], 112 °C.

On to `COC(=O)C1(NC(=O)c2ccc(-c3ccccc3Cl)c(-c3ccc(Cl)c(OCCCN(C)C)c3)n2)C2CC3CC(C2)CC1C3` (stereo not drawn) (as salt: hydrochloride) [Compound 26, methyl 2-({[6-{4-chloro-3-[3-(dimethylamino)propoxy]phenyl}-5-(2-chlorophenyl)pyridin-2-yl]carbonyl}amino)adamantane-2-carboxylate], for which the melting point came out at 135 °C. In the case of `CCOC(=O)C[C@H](NC(=O)c1ccc(-c2ccccc2C)c(-c2ccc(Cl)c(OCCCN(C)C)c2)n1)C(C)(C)C` (as salt: hydrochloride) [Compound 29, ethyl(3S)-3-({[6-{4-chloro-3-[3-(dimethylamino)propoxy]phenyl}-5-(2-methylphenyl)pyridin-2-yl]carbonyl}amino)-4,4-dimethylpentanoate] it was 90 °C. With `CNC(=O)C[C@H](NC(=O)c1ccc(-c2ccccc2C)c(-c2ccc(Cl)c(OCCCN(C)C)c2)n1)C(C)(C)C` (as salt: hydrochloride) [Compound 33, 6-{4-chloro-3-[3-(dimethylamino)propoxy]phenyl}-N-{(1S)-2,2-dimethyl-1-[2-(methylamino)-2-oxoethyl]propyl}-5-(2-methylphenyl)pyridine-2-carboxamide] the figure was 152 °C.
